# The source made the active and inactive calls. The calls are words filed in the database; no cut-off is given here.
# Experiments:
# [1] = biological target: RAC-alpha serine/threonine-protein kinase (Homo sapiens) (UniProt P31749); experiment: Inhibition of AKT at < 10 uM by IMAP assay
# [2] = biological target: Cyclin-dependent kinase 7 (Homo sapiens) (UniProt P50613); experiment: Inhibition of CDK7 at < 10 uM by TR-FRET assay
# [3] = biological target: Serine/threonine-protein kinase PLK1 (Homo sapiens) (UniProt P53350); experiment: Inhibition of PLK1 at < 10 uM by TR-FRET assay
# [4] = biological target: Serine/threonine-protein kinase PLK2 (Homo sapiens) (UniProt Q9NYY3); experiment: Inhibition of PLK2 at < 10 uM by TR-FRET assay
# [5] = biological target: Protein kinase C alpha type (Homo sapiens) (UniProt P17252); experiment: Inhibition of human recombinant PKCalpha at < 10 uM after 10 mins by radiometric assay
# [6] = biological target: Protein kinase C beta type (Homo sapiens) (UniProt P05771); experiment: Inhibition of human recombinant PKCbeta1 at < 10 uM after 10 mins by radiometric assay
# [7] = biological target: Protein kinase C delta type (Homo sapiens) (UniProt Q05655); experiment: Inhibition of human recombinant PKCdelta at < 10 uM after 10 mins by radiometric assay
# [8] = biological target: Calcium/calmodulin-dependent protein kinase type II subunit alpha (Homo sapiens) (UniProt Q9UQM7); experiment: Inhibition of human recombinant CAMK2alpha at < 10 uM after 10 mins by radiometric assay
# [9] = Inhibition of human recombinant PKD3 after 10 mins by radiometric assay
# Chain of Cyclin-dependent kinase 7 (Homo sapiens) (P50613 whole entry): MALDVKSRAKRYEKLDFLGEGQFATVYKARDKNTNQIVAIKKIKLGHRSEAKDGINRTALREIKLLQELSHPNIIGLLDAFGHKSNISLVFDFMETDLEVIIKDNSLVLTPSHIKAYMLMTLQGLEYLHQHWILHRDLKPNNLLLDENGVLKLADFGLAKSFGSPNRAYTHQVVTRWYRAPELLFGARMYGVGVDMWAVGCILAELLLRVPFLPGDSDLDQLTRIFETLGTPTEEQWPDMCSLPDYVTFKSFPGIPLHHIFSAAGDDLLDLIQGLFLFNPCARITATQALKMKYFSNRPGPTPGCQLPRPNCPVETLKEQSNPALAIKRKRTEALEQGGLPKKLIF
# Chain of Serine/threonine-protein kinase PLK2 (Homo sapiens) (Q9NYY3 whole entry, looked up): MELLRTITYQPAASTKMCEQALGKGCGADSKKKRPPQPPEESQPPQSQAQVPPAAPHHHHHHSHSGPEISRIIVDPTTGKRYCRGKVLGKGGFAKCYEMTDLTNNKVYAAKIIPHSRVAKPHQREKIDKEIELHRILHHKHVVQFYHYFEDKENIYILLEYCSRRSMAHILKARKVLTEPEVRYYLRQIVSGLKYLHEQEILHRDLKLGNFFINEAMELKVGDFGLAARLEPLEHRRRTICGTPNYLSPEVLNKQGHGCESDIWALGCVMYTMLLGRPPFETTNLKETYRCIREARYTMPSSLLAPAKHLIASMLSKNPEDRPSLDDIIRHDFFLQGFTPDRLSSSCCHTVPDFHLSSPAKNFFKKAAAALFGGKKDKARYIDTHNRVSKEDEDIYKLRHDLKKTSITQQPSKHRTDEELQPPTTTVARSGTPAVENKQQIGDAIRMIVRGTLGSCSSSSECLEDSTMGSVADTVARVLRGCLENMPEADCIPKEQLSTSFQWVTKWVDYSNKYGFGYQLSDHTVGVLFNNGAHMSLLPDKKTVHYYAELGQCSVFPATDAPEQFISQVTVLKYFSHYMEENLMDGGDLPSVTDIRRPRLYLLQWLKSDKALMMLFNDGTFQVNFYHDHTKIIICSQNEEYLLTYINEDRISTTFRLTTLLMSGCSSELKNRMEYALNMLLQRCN
# Chain of Serine/threonine-protein kinase PLK1 (Homo sapiens) (P53350 whole entry): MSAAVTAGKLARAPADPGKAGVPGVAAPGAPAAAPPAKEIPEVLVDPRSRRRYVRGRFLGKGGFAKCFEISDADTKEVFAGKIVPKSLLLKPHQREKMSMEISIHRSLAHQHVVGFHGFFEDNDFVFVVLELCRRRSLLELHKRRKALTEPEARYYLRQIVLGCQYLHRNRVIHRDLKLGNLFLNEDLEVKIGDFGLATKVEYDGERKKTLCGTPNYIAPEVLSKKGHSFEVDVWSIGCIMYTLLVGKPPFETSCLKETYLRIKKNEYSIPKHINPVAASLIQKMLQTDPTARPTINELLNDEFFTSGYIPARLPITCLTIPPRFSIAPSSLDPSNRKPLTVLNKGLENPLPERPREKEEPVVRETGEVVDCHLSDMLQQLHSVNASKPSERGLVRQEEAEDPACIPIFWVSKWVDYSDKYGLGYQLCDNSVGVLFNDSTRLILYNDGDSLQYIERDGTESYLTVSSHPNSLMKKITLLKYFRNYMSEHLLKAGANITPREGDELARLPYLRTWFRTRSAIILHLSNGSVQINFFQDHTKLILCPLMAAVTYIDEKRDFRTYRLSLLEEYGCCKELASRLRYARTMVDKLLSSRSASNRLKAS
# Chain of Protein kinase C delta type (Homo sapiens) (Q05655 whole entry, looked up): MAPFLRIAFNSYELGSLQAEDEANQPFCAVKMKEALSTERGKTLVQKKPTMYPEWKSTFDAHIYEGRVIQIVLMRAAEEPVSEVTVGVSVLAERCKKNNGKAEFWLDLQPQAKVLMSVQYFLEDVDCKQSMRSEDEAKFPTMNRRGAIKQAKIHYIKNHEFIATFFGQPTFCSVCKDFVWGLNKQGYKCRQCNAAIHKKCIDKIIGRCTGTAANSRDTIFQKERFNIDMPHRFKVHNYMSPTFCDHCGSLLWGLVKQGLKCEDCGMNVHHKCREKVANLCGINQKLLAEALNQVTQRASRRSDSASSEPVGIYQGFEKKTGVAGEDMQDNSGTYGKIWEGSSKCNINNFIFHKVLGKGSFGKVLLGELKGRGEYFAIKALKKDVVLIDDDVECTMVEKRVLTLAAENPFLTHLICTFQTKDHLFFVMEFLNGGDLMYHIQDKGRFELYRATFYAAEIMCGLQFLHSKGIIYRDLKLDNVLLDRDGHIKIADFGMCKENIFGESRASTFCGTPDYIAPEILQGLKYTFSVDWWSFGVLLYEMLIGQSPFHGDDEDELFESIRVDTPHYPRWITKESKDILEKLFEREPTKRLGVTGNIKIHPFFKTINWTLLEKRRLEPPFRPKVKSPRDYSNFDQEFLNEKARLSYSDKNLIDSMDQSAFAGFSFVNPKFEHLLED
# Chain of Calcium/calmodulin-dependent protein kinase type II subunit alpha (Homo sapiens) (Q9UQM7 whole entry): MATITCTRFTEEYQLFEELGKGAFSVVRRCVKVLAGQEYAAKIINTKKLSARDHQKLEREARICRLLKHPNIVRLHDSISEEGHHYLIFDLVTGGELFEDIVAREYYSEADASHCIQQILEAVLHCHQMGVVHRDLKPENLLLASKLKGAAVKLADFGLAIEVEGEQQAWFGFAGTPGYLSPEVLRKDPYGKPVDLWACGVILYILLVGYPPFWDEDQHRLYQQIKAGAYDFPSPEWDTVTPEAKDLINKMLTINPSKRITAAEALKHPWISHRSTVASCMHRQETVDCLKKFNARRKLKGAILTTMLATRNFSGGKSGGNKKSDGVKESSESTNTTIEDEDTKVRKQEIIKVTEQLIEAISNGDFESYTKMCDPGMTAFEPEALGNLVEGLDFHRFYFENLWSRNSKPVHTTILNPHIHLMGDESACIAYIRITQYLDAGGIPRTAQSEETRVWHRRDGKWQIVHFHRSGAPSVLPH
# Chain of Protein kinase C beta type (Homo sapiens) (P05771 2-671 limits assumed): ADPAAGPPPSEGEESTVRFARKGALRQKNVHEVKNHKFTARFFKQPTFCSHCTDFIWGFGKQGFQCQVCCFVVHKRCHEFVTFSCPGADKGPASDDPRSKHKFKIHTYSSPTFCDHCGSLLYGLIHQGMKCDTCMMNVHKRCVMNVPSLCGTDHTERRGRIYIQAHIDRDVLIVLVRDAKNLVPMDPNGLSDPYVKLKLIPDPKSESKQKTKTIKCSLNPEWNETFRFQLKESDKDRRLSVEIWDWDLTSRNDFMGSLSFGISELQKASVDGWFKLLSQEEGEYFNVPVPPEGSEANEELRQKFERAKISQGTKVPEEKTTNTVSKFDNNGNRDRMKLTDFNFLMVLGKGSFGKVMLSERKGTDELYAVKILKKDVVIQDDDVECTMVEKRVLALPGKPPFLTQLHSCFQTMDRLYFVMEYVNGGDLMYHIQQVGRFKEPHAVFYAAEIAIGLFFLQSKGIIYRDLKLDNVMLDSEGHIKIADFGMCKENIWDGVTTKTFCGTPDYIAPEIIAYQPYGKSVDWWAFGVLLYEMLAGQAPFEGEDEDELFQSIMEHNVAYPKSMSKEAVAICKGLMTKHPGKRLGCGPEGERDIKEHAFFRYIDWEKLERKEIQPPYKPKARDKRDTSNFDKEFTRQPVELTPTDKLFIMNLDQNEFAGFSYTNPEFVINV
# Chain of RAC-alpha serine/threonine-protein kinase (Homo sapiens) (P31749 whole entry): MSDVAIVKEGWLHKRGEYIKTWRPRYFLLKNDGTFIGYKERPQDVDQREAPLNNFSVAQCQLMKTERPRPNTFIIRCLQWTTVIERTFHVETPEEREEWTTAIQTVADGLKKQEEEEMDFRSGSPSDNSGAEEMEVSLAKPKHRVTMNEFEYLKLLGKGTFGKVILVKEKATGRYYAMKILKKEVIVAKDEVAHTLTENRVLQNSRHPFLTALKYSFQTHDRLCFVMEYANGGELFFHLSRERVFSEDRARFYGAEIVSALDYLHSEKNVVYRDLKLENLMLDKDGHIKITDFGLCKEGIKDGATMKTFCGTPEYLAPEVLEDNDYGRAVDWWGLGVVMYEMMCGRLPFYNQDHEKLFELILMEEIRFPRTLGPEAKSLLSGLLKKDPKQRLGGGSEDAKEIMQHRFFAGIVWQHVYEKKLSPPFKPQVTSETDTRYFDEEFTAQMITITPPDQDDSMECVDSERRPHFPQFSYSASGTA
SMILES,inhibition [1],inhibition [2],inhibition [3],inhibition [4],inhibition [5],inhibition [6],inhibition [7],inhibition [8],IC50 [9]
COc1ccc2sc3c(c2c1)SCCCNC3=O,inactive,inactive,inactive,inactive,inactive,inactive,inactive,inactive,–
O=C1NCCCSc2c1sc1ccc(O)cc21,inactive,inactive,inactive,inactive,inactive,inactive,inactive,inactive,–
[N-]=[N+]=Nc1ccc2sc3c(c2c1)SCCNC3=O,inactive,inactive,inactive,inactive,inactive,inactive,inactive,< 40%,–
O=C1NCCSc2c1sc1ccc(O)cc21,inactive,inactive,inactive,inactive,inactive,inactive,inactive,inactive,–
COc1ncc2sc3c(c2n1)SCCNC3=O,inactive,inactive,inactive,inactive,inactive,inactive,inactive,inactive,50 nM
COc1ccc2sc3c(c2c1)SCCNC3=O,inactive,inactive,inactive,inactive,inactive,inactive,inactive,inactive,–
O=C1NCCCc2c1oc1ccc(O)cc21,inactive,inactive,inactive,inactive,inactive,inactive,inactive,inactive,–
O=C1NCCCc2c1[nH]c1ccc(O)cc21,inactive,inactive,inactive,inactive,inactive,inactive,inactive,< 40%,–

# Source: ChEMBL document CHEMBL1671836, “Synthesis and Structure-Activity Relationships of Benzothienothiazepinone Inhibitors of Protein Kinase D” (ACS Med Chem Lett, 2011)
